Entries after “also recorded” stand apart in the source; their conditions may differ.
Key:
SKH-1 mice = experiment: UV-B-induced skin damage and loss of barrier function (redness, TEWL) in SKH-1 mice, topical treatment; format: in vivo; conditions: topical 10 μmol/0.2 ml acetone/mouse 30 minutes before 180 mJ/cm^2 UV-B, every 2 days, 7 treatments; for prevention of UV-mediated transepidermal water loss (TEWL) / loss of barrier function: versus vehicle+UV-B
From the text: FIG. 2 depicts the manner in which pterostilbene prevents UV-B induced damage in the skin of SKH-1 mice. […] Photographs show representative mice after 4th treatment.
FIG. 3 depicts the manner in which pterostilbene prevents UV-mediated loss of skin barrier function in SKH-1 mice after exposure to UV-B radiation as described above for FIG. 2. TEWL measurements are expressed in g/m^2·h (and labeled ‘TD Water Loss’).
UV-B exposure. Mice were exposed to a single dose of 180mJ/cm^2 UVB radiation delivered via broadband UVB lamps (TL 40W/12 RS; Philips) emitting 290-350 nm light with a peak emission at 312 nm. The irradiance was measured using a thermopile sensor (818P-001-12; Newport Inc., Irvine, Calif.) and power meter (842-PE; Newport Inc.).
TEWL measurement. For transepidermal water loss (TEWL) a closed measurement chamber device (VapoMeter, Delfin Technologies Ltd, Kuopio, Finland) measuring flux density (gram/m^2·h) was used applying the sensor with even and constant pressure to dorsal skin by a single operator per manufacturer's instructions.
Statistics. All statistical analyses were performed using CRAN R, version 3.0.0, an open-source program of The R Foundation for Statistical Computing. Linear mixed-effect models were fit for each endpoint with a random effect for the mouse and fixed effects for UV exposure, treatment group, and their interaction.
Hairless SKH-1 mice were used to evaluate the effectiveness of pterostilbene at preventing UV-mediated damage in skin. The SKH-1 model is ideally suited for this purpose and is commonly used in preclinical studies and yielded valuable results. […] To ascertain if pterostilbene could also prevent those molecular alterations, we replicated these experiments. […] For all topical treatments 200 μl total volume was applied to the back skin of the mouse. For acetone group, 200 μl of acetone was applied. […] These mice were treated every 2 days for 7 total treatments. […] 24 hrs after last treatment, mice were euthanized, skin bi-fold measurements taken and back skins collected. […] This prevention of visual skin damage by pterostilbene correlated nicely with the prevention of loss of barrier function. […] Therefore pterostilbene prevented UV-induced loss of barrier function of the skin of SKH-1 mice.

[1] = rats; cited from earlier work
mouse epidermis = conditions: cited from earlier work
human liver microsomes = experiment: in vitro glucuronidation assay with pooled human liver microsomes; format: in vitro ADME; conditions: 100 μg pooled human liver microsomes (n=20), 500 μM compound
Experimental: Human liver microsomes metabolize resveratrol much faster than pterostilbene. […] HPLC chromatographs are presented depicting either parent compound or indicated glucuronide metabolite. Glucuronide metabolite peaks were confirmed by subsequent treatment with β-glucuronidase (data not shown). Detection of peaks by UV/VIS detector at 308 nm.
Specifically, in vitro glucuronidation assays were performed as previously described in one co-inventor's work (Dellinger, R. W., et al., “Glucuronidation of PhIP and N—OH-PhIP by UDP-glucuronosyltransferase 1A10,” Carcinogenesis (2007) 28: 2412-8; Dellinger, R. W., et al., “Importance of UDP-glucuronosyltransferase 1A10 (UGT1A10) in the detoxification of polycyclic aromatic hydrocarbons: decreased glucuronidative activity of the UGT1A10139Lys isoform,” Drug Metab. Dispos. (2006) 34: 943-9; Chen, G., Dellinger, R. W., et al., “Glucuronidation of tobacco-specific nitrosamines by UGT2B10,” Drug Metab. Dispos.

[2] = cited from earlier work
[3] = 125 mg orally twice a day; cited from earlier work
[4] = humans; cited from earlier work
mouse skin = conditions: cited from earlier work

COc1cc(/C=C/c2ccc(O)cc2)cc(OC)c1 [pterostilbene, 3,5-dimethoxy-4′-hydroxy-trans-stilbene]
redness (sunburn) on back skin after UV-B (SKH-1 mice): no redness was observed on any of the 5 mice | prevention of UV-mediated transepidermal water loss (TEWL) / loss of barrier function (SKH-1 mice): prevents TEWL after UV exposure; also recorded: prevented UV-mediated TEWL | increased bioavailability in comparison to resveratrol [1]: 5 fold | COX-2 activation and TPA-induced tumor formation in mouse epidermis in vivo (mouse epidermis): prevent | fraction metabolized (glucuronidated) after 2 hours (human liver microsomes): 20% | half life t1/2 in blood [2]: about 105 minutes | overall blood pressure [3]: reduction in overall blood pressure was observed | toxicity in patients [3]: no toxicity reported

Oc1ccc(C=Cc2cc(O)cc(O)c2)cc1 [resveratrol]
redness (sunburn) on back skin after UV-B (SKH-1 mice): able to limit the amount of redness observed on the back, it did not prevent it | prevention of UV-mediated transepidermal water loss (TEWL) / loss of barrier function (SKH-1 mice): did not prevent TEWL | prevention of UV-mediated transepidermal water loss (TEWL) / loss of barrier function (SKH-1 mice; listed as Resveratrol): ineffective | bioavailability (in words) [4]: poor bioavailability | UV-B mediated cell damage (including hyperplasia) in mouse skin (mouse skin; given orally or applied topically): prevents UV-B mediated cell damage (including hyperplasia) | UV-induced skin cancer progression (mouse skin; several mouse studies): block UV-induced skin cancer progression | conversion to glucuronides after 2 hours (in words) (human liver microsomes): almost completely converted to its glucuronides | half life t1/2 in blood [2]: about 14 minutes

From patent US9980924B2, “Topical pterostilbene compositions for use in treating UV-induced loss of barrier function in skin” (The Regents of the University of California, priority 2014, dated 2018)
